Experimental data reported in US5708032A, “Fluoroalkenyl compounds and their use as pest control agents” (Monsanto Company, priority 1995, dated 1998).
“And” between values parts separate entries of the source, which are not always exact repeats. Equal entries are not always repeated. Structures can show the parent of a compound that is named as a salt. Where two headings read alike, the source gives them in different places.

System: root knot nematodes (Meloidogyne incognita)
Experiment: systemic control of root knot nematodes on tomato roots by foliar application
Assay type: in vivo
Conditions: for pest or weed control at 100 ppm / pest or weed control at 500 ppm: Meloidogyne incognita, 504 h, read-out: percent control of root disease relative to non-treated plants
Description: Compounds of the present invention, prepared as described above, were tested for effectiveness in controlling root knot nematodes (Meloidogyne incognita) on tomato roots when applied to foliage of young plants.
Tomato plants, cv `Rutgers`, were grown one per pot in six an square plastic pots containing a mixture of equal parts fine sand, coarse sand, silt loam soil, and commercial potting medium. A 10,000 ppm stock solution of each test compound was prepared in either water or acetone. Samples were then diluted with additional water to give final test concentrations of 500 and 100 ppm. Tween®20 was added for a final concentration of 0.5% v/v in all test samples.
When the tomato plants were 18-21 days old the test solutions were sprayed onto the leaves and stems. Each rate of each test compound was applied to three tomato plants using four ml of spray solution per plant. One day after spraying the plants were inoculated with mature root knot nematode eggs containing J1 larvae, with 8,000 eggs per plant applied in 5 ml of water on soil at the stem base. Plants then were incubated in a growth chamber at 27° C. with all replicate pots randomized throughout the chamber. During the two weeks immediately following application of the test compounds all plants received sub-irrigation and the foliage was kept dry.
After three weeks incubation the plant roots were washed and nematode disease severity was assessed. Each root system was rated individually and a visual estimate of the percent of the root system afflicted with nematode galling was determined. Values of 0, 1, 5, 10, 20, 30, 40, 50, 60, 70, 80, or 100 percent galled roots were assigned to each plant. […] For each treatment (compound & rate) a standard deviation was calculated for the mean of the three replicate plants. Percent disease control relative to non-treated plants also was calculated.

[1] = 100 ppm foliar spray, tomato cv Rutgers, 3 weeks, mean of three plants, non-treated generally 60% or greater
[2] = 500 ppm foliar spray, tomato cv Rutgers, 3 weeks, mean of three plants, non-treated generally 60% or greater
[3] = 100 ppm foliar spray, tomato cv Rutgers, 3 weeks, * = no biological activity at the rate tested
[4] = 500 ppm foliar spray, tomato cv Rutgers, 3 weeks, * = no biological activity at the rate tested

N#CCNC(=O)CC(F)=C(F)F [Example 2, 3-BUTENAMIDE, N-CYANOMETHYL)-3,4,4- TRIFLUORO-]
Mean percent root disease (galled) [1]: 73%
Mean percent root disease (galled) [2]: 67%
pest or weed control at 100 ppm [3]: 8%
pest or weed control at 500 ppm [4]: 17%

CONC(=O)CC(F)=C(F)F [Example 3, 3-BUTENAMIDE, 3,4,4-TRIFLUORO-N-METHOXY-]
Mean percent root disease (galled) [1]: 77%
Mean percent root disease (galled) [2]: 70%
pest or weed control at 100 ppm [3]: 12%
pest or weed control at 500 ppm [4]: 20%

NC(=O)NNC(=O)CC(F)=C(F)F [Example 4, 3-BUTENOIC ACID, 3,4,4-TRIFLUORO-, 2-(AMINOCARBONYL)HYDRAZIDE]
Mean percent root disease (galled) [1]: 80%
Mean percent root disease (galled) [2]: 73%
pest or weed control at 100 ppm [3]: 0%
pest or weed control at 500 ppm [4]: 8%

COc1cc(OC)nc(NC(=O)CC(F)=C(F)F)n1 [Example 5, 3-BUTENAMIDE, N-(4,6-DIMETHOXY-2-PYRIMIDINYL)- 3,4,4-TRIFLUORO-]
Mean percent root disease (galled) [1]: 90%
Mean percent root disease (galled) [2]: 30%
pest or weed control at 100 ppm [3]: -3%
pest or weed control at 500 ppm [4]: 66%

C[Si](C)(C)CN(Cc1ccccc1)C(=O)CC(F)=C(F)F [Example 6, 3-BUTENAMIDE, 3,4,4-TRIFLUORO-N-(PHENYLMETHYL)- N-[(TRIMETHYLSILYL) METHYL]-]
pest or weed control at 100 ppm (foliar): 2%
pest or weed control at 500 ppm (foliar): 0%
Mean percent root disease (galled) (in vivo): 87% and 85%

O=C(CC(F)=C(F)F)Nc1ccc(S(=O)(=O)O)cc1 [Example 7, BENZENESULFONIC ACID, 4-[(3,4,4-TRIFLUORO-1-OXO-3- BUTENYL)AMINO]-]
Mean percent root disease (galled) [1]: 23%
Mean percent root disease (galled) [2]: 17%
pest or weed control at 100 ppm [3]: 56%
pest or weed control at 500 ppm [4]: 69%

CS(=O)(=O)NC(=O)CC(F)=C(F)F [Example 8, 3-BUTENAMIDE, 3,4,4-TRIFLUORO-N- (METHYLSULFONYL)-]
Mean percent root disease (galled) [1]: 80%
Mean percent root disease (galled) [2]: 5%
pest or weed control at 100 ppm [3]: 0%
pest or weed control at 500 ppm [4]: 94%

O=C(CC(F)=C(F)F)NS(=O)(=O)C(F)(F)F [Example 9, 3-BUTENAMIDE, 3,4,4-TRIFLUORO-, N-[(TRIFLUOROMETHYL)SULFONYL]-]
Mean percent root disease (galled) [1]: 80%
Mean percent root disease (galled) [2]: 5%
pest or weed control at 100 ppm [3]: 0%
pest or weed control at 500 ppm [4]: 94%

O=C(CC(F)=C(F)F)NCS(=O)(=O)O [Example 10, METHANESULFONIC ACID, [(3,4,4-TRIFLUORO-1-OXO-3- BUTENYL)AMINO]-]
Mean percent root disease (galled) [1]: 20%
Mean percent root disease (galled) [2]: 27%
pest or weed control at 100 ppm [3]: 62%
pest or weed control at 500 ppm [4]: 50%

O=C(CC(F)=C(F)F)n1cncn1 [Example 11, 1H-1,2,4-TRIAZOLE, 1-(3,4,4-TRIFLUORO-1-OXO-3- BUTENYL)-]
Mean percent root disease (galled) [1]: 80%
Mean percent root disease (galled) [2]: 7%
pest or weed control at 100 ppm [3]: 0%
pest or weed control at 500 ppm [4]: 92%

O=C(CC(F)=C(F)F)n1cccn1 [Example 12, 1H-PYRAZOLE, 1-(3,4,4-TRIFLUORO-1-OXO-3- BUTENYL)-]
Mean percent root disease (galled) [1]: 80%
Mean percent root disease (galled) [2]: 43%
pest or weed control at 100 ppm [3]: 0%
pest or weed control at 500 ppm [4]: 46%

FC(F)=C(F)CC(=S)Nc1ccccc1 [Example 13, 3-BUTENETHIOAMIDE, 3,4,4-TRIFLUORO-N-PHENYL-]
Mean percent root disease (galled) [1]: 40%
Mean percent root disease (galled) [2]: 27%
pest or weed control at 100 ppm [3]: 25%
pest or weed control at 500 ppm [4]: 50%

C[Si](C)(C)CCCOC(=O)CC(F)=C(F)F [Example 14, 3-BUTENOIC ACID, 3,4,4-TRIFLUORO-, 3-(TRIMETHYLSILYL)PROPYL ESTER]
pest or weed control at 100 ppm (foliar): 4%
pest or weed control at 500 ppm (foliar): 8%
Mean percent root disease (galled) (in vivo): 80% and 83%

C[Si](C)(C)CCSC(=O)CC(F)=C(F)F [Example 15, 3-BU[…], 3,4,4-TRIFLUORO-, S-[2-(TRIMETHYLSILYL)ETHYL] ESTER]
pest or weed control at 100 ppm (foliar): 2%
pest or weed control at 500 ppm (foliar): -3%
Mean percent root disease (galled) (in vivo): 90% and 85%

O=C(CC(F)=C(F)F)Sc1ncccn1 [Example 16, 3,-BUTENETHIOIC ACID, 3,4,4-TRIFLUORO-, S-2-PYRIMIDINYL ESTER]
Mean percent root disease (galled) [1]: 80%
Mean percent root disease (galled) [2]: 50%
pest or weed control at 100 ppm [3]: 0%
pest or weed control at 500 ppm [4]: 38%

O=P(O)(O)CC(F)=C(F)F [Example 18, PHOSPHONIC ACID, (2,3,3-TRIFLUORO-2-PROPENYL)-]
pest or weed control at 100 ppm (foliar): -5%
pest or weed control at 500 ppm (foliar): 0%
Mean percent root disease (galled) (in vivo): 73% and 77%

O=P(O)(CC(F)=C(F)F)c1ccccc1 [Example 19, PHOSPHINIC ACID, PHENYL(2,3,3-TRIFLUORO-2- PROPENYL)-, SODIUM SALT]
Mean percent root disease (galled) [1]: 73%
Mean percent root disease (galled) [2]: 73%
pest or weed control at 100 ppm [3]: 0%
pest or weed control at 500 ppm [4]: 0%

Cc1ccccc1C(=O)CC(F)=C(F)F [Example 20, 3-BUTEN-1-ONE, 3,4,4-TRIFLUORO-1-(2-METHYL PHENYL)-]
Mean percent root disease (galled) [1]: 53%
Mean percent root disease (galled) [2]: 47%
pest or weed control at 100 ppm [3]: 0%
pest or weed control at 500 ppm [4]: 12%
